Test results: patent US8349886B2, “Nitrogenated 5-membered heterocyclic compound” (Takeda Pharmaceutical Company Limited, priority 2008, dated 2013)

Target: T1, GST-hLGK1 (human liver type GK) (Homo sapiens, UniProt P35557)
T1 construct: made in house; host or cells: Escherichia coli BL21 (Stratagene), plasmid pGEX6P-2/hLGK1
T1 sequence (P35557 1-464 isoform P35557-3): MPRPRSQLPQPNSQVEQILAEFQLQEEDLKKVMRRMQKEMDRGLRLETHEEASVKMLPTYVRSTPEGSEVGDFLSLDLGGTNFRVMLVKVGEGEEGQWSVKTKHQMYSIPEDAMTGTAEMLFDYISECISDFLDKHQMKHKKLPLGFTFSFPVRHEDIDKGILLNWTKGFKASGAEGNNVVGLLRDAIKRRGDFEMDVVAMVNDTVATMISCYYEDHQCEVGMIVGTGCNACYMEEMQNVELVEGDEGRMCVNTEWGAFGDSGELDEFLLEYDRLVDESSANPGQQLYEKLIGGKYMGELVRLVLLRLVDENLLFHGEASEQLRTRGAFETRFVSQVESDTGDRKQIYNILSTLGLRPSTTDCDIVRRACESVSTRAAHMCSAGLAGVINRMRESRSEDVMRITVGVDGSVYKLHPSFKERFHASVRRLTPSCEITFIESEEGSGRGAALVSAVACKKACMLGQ
Assay: Measurement of GK activation value (Mant-ATP/Mant-ADP capillary electrophoresis)
Format: biochemical
Settings: test compound 10 μmol/L; 5 mmol/L D-glucose; reaction rate as percentage of control group without test compound
Method: A plasmid DNA used for expression of a protein (GST-hLGK1) having GST (Glutathione S-transferase) added to the amino terminal of human liver type GK in Escherichia coli was prepared as follows.
BL21 strain (Stratagene) transformed with pGEX6P-2/hLGK1 obtained in Reference Example 1A was cultured with shaking in a 200 ml Erlenmeyer flask containing LB medium (50 ml) containing 100 μg/ml ampicillin at 37° C. for 14 hr. The cultured broth (25 ml) was diluted with LB medium (225 ml) containing 100 μg/ml ampicillin, and cultured with shaking in a 1 L Erlenmeyer flask at 37° C. for 1 hr. The Erlenmeyer flask after culture was cooled on ice, 100 mM Isopropyl-Thio-β-D-Galactopyranoside (IPTG) (125 μL) was added (final concentration 50 μM), and the cells were cultured at 17° C. for 20 hr. The cultures broth was centrifuged, and the obtained cells were disrupted by ultrasonication, and the object protein (GST-hLGK1) was purified from the supernatant using Glutathione Sepharose 4B (Amersham Biosciences).
GK enzyme reactions were performed in 50 mmol/L HEPES pH7.4, 200 mmol/L KCl, 5 mmol/L MgCl2, 2 mmol/L DTT, containing 50 μmol/L 2′-(or-3′)-O—(N-methylanthraniloyl)adenosine 5′-triphosphate (Mant-ATP) (Jena Bioscience GmbH), 5 mmol/L D-glucose, 5% DMSO and 6 μg/mL GST-hLGK1 obtained in Reference Example 2A in a total volume 50 μL. The reactions were performed in 384 well black plates (Nalge Nunc International K.K.). Prior to the reaction, the enzyme and test compound were incubated for 10 min at 37° C., and 25 mM D-glucose solution (10 μL) was added to start the reaction. The final concentration of the test compound is 10 μmol/L. After the incubation for 60 min at 37° C., the reaction was quenched by adding 25 μL of a quenching solution (containing 200 mM HEPES (pH 7.4), 20 mM MgCl2, 200 mM EDTA, 0.03% Triton-X 100, 0.3% Coating 3 reagent (Caliper Life Sciences, Inc.)).
Mant-ATP (substrate, 2′-(or-3′)-O—(N-methylanthraniloyl)adenosine 5′-triphosphate) and Mant-ADP (reaction resultant product) were separated from each well after the reaction by a microchip type capillary electrophoresis apparatus 250 HTS (Caliper Life Sciences, Inc.). The reaction rate [(reaction resultant product peak height)/(reaction resultant product peak height+substrate peak height)×100(%)] was calculated from the ratio of the substrate peak height and reaction resultant product peak height obtained by fluorescence detection (excitation wavelength 355 nm, measurement wavelength 460 nm) and used as the index of GK activity.
As a control group, the reaction rate was calculated in the same manner as above without the test compounds. […]

Emax at 10 µM [%]	Structure (SMILES)
138	Cn1nc(C(CC2CCOCC2)c2ccc(-c3ncc(CO)s3)[nH]2)cc1S(C)(=O)=O (stereo not shown) [Example 2, [2-(5-{1-[1-methyl-5-(methylsulfonyl)-1H-pyrazol-3-yl]-2-(tetrahydro-2H-pyran-4-yl)ethyl}-1H-pyrrol-2-yl)-1,3-thiazol-5-yl]methanol]
124	COc1ccnc2c1cnn2C(CC1CCOCC1)c1ccc(-c2ccc(C(O)C(C)(C)O)cn2)[nH]1 (stereo not shown) [Example 3, 1-(6-{5-[1-(4-methoxy-1H-pyrazolo[3,4-b]pyridin-1-yl)-2-(tetrahydro-2H-pyran-4-yl)ethyl]-1H-pyrrol-2-yl}pyridin-3-yl)-2-methylpropane-1,2-diol]
161	CC(C)(O)C(O)c1ccc(-c2ccc(C(CC3CCOCC3)n3ncc4c(S(=O)(=O)C5CC5)cccc43)[nH]2)nc1 (stereo not shown) [Example 4, 1-[6-(5-{1-[4-(cyclopropylsulfonyl)-1H-indazol-1-yl]-2-(tetrahydro-2H-pyran-4-yl)ethyl}-1H-pyrrol-2-yl)pyridin-3-yl]-2-methylpropane-1,2-diol]
162	COc1ccc2c(cnn2C(CC2CCOCC2)c2ccc(-c3ccc(C(O)C(C)(C)O)cn3)[nH]2)c1S(=O)(=O)C1CC1 (stereo not shown) [Example 5, 1-[6-(5-{1-[4-(cyclopropylsulfonyl)-5-methoxy-1H-indazol-1-yl]-2-(tetrahydro-2H-pyran-4-yl)ethyl}-1H-pyrrol-2-yl)pyridin-3-yl]-2-methylpropane-1,2-diol]
